Read-outs that look alike come from different tables or passages of the source. Starred links: 1 amine or outer side, 2 acyl side, 3 side chain; linkers in the order of their positions; H or OH if unused. Non-standard residues stand in square brackets, D forms with d. Residues, ends and D or L forms follow the SMILES beside them. Groups on a side chain read outwards from the residue. No end group written: not given here. *: point of attachment. C20 diacid = O=C(O)CCCCCCCCCCCCCCCCCCC(=O)*; C18 diacid = O=C(O)CCCCCCCCCCCCCCCCC(=O)*; αMePhe(2-F) = C[C@](N)(Cc1ccccc1F)C(=O)O; γGlu = O=C(O)[C@H](CCC(=O)[*:2])N[*:1]; αMe4Pal = C[C@](N)(Cc1ccncc1)C(=O)O; αMeY = C[C@](N)(Cc1ccc(O)cc1)C(=O)O; 4Pal = N[C@@H](Cc1ccncc1)C(=O)O; αMeL = CC(C)C[C@](C)(N)C(=O)O; αMeS = C[C@](N)(CO)C(=O)O; Orn = NCCC[C@H](N)C(=O)O; AEEA = NCCOCCOCC(=O)O; Aib = CC(C)(N)C(=O)O
What was measured:
Assay type in all cases: cell-based
[1] = biological target: hGcgR (Homo sapiens, UniProt P47871); assay: Functional cAMP activation in the presence of 0.1% casein (no HSA); conditions: read-out: Relative cAMP EC50, hGcgR;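 also: intracellular cAMP rise after 30 min at 37 °C, read by HTRF against a cAMP standard curve, scaled from buffer only (0%) to maximal control ligand response (100%)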
hGcgR, sequence (P47871 26-477): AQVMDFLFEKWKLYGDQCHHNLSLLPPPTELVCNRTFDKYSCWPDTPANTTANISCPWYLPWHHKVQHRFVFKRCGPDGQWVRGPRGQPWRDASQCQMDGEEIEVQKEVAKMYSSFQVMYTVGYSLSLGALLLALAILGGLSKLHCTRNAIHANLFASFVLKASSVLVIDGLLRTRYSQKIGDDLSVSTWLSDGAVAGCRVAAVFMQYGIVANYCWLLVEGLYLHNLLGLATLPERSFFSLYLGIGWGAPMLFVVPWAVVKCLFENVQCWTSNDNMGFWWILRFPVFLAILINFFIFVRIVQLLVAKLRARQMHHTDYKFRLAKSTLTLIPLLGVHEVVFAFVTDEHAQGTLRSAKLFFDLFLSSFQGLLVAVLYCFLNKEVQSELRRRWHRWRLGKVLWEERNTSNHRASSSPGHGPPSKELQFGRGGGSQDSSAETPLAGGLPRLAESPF

[2] = biological target: T1, hGIPR (Homo sapiens, UniProt P48546); assay: Functional cAMP activity in the presence of 1% HSA; conditions: read-out: cAMP Rel EC50, hGIPR
T1 sequence (P48546 22-466): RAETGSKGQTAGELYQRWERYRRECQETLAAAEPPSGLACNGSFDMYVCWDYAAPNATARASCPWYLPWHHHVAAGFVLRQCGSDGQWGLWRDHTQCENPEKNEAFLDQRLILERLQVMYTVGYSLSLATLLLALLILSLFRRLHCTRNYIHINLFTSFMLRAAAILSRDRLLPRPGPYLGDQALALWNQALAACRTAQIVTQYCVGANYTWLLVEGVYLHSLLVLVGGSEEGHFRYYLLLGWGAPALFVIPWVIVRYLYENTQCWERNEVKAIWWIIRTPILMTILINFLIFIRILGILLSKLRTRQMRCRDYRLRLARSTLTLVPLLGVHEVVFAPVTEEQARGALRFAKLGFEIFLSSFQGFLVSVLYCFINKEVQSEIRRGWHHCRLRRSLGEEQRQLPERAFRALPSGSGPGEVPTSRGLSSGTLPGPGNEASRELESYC

[3] = biological target: human GcgR (Homo sapiens, UniProt P47871); assay: Functional cAMP activity in the presence of 1% HSA; conditions: read-out: cAMP Rel EC50, hGcgR
human GcgR, sequence (P47871 26-477): as the sequence (P47871 26-477) above

[4] = biological target: T1, hGIPR; assay: Functional cAMP activation in the presence of 0.1% casein (no HSA); conditions: read-out: Relative cAMP EC50, hGIPR;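 as to Relative cAMP EC50, hGIPR: intracellular cAMP rise after 30 min at 37 °C read by HTRF against a standard curve, scaled between buffer alone (0%) and top control ligand concentration (100%), four-parameter fit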;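 as to Relative cAMP EC50, hGLP-1R: intracellular cAMP rise after 30 min at 37 °C read by HTRF, normalized between buffer only (0%) and maximal control ligand (100%), four-parameter variable-slope fit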
[5] = biological target: T2, hGLP-1R (Homo sapiens, UniProt P43220); assay: as above; conditions: read-out: Relative cAMP EC50, hGLP-1R;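 also: intracellular cAMP rise after 30 min at 37 °C read by HTRF, normalized between buffer only (0%) and maximal control ligand (100%), four-parameter variable-slope fit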
T2 sequence (P43220 24-463): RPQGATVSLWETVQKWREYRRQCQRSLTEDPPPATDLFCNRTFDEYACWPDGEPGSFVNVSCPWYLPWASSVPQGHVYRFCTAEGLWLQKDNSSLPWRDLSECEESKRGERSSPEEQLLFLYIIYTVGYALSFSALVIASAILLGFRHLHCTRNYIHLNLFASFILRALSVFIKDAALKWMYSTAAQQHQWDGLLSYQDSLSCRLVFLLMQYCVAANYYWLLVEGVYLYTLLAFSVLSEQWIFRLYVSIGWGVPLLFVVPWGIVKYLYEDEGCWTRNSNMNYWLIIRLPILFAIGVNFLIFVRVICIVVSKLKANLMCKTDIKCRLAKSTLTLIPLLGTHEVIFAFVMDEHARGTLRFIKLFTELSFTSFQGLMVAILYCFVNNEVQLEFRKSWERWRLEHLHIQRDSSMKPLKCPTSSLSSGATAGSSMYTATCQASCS

[6] = biological target: T2, hGLP-1R; assay: Functional cAMP activity in the presence of 1% HSA; conditions: read-out: cAMP Rel EC50, hGLP-1R
[7] = 0.1% casein, no HSA, geometric mean
[8] = in the presence of 0.1% casein (no HSA), geometric mean

## H-Y[Aib]QGT[αMePhe(2-F)]TSD[4Pal][αMeS]I[αMeL]LD[Orn]K([AEEA-γGlu-C18 diacid])AQ[αMe4Pal]EFI[dE][αMeY]LIEGGPSSGAPPPEGGGEEE-NH2 [Example 1217]
[1]; [7]
  EC50: 1.98 nM
[2]
  EC50: 1.06 nM
[3]
  EC50: 253 nM
[4]; [7]
  EC50: 0.0101 nM
[5]; [7]
  EC50: 0.751 nM
[6]
  EC50: 62.7 nM

## H-Y[Aib]QGT[αMePhe(2-F)]TSDYSKLLDEIAQK([AEEA-γGlu-C20 diacid])AFIEYLLEGGPSSGEPPPSEG-NH2 [Example 303]
[1]; [8]
  EC50: 6.1 nM
[2]
  EC50: 44.7 nM
[3]
  EC50: 9950 nM
[4]; [8]
  EC50: 0.116 nM
[5]; [8]
  EC50: 1.13 nM
[6]
  EC50: 257 nM

## Y[Aib]QGT[αMePhe(2-F)]TSD[4Pal][αMeS]I[αMeL]LD[Orn]K([AEEA-γGlu-C18 diacid])AA[Aib]EFI[dE][αMeY]LIEGGPSSGAPPPSGGGE-NH2 [Example 745]
[1]
  EC50: 1.86 nM
[2]
  EC50: 1.36 nM
[3]
  EC50: 266 nM
[4]
  EC50: 0.012 nM
[5]
  EC50: 0.212 nM
[6]
  EC50: 29 nM

## CC[C@H](C)[C@H](NC(=O)[C@H](CC(C)C)NC(=O)[C@](C)(Cc1ccc(O)cc1)NC(=O)[C@@H](CCC(=O)O)NC(=O)[C@@H](NC(=O)[C@H](Cc1ccccc1)NC(=O)[C@H](CCC(=O)O)NC(=O)C(C)(C)NC(=O)[C@H](C)NC(=O)[C@H](C)NC(=O)[C@H](CCCCNC(=O)COCCOCCNC(=O)CC[C@H](NC(=O)CCCCCCCCCCCCCCCCC(=O)O)C(=O)O)NC(=O)[C@H](CCCN)NC(=O)[C@H](CC(=O)O)NC(=O)[C@H](CC(C)C)NC(=O)[C@](C)(CC(C)C)NC(=O)[C@@H](NC(=O)[C@](C)(CO)NC(=O)[C@H](Cc1ccncc1)NC(=O)[C@H](CC(=O)O)NC(=O)[C@H](CO)NC(=O)[C@@H](NC(=O)[C@](C)(Cc1ccccc1F)NC(=O)[C@@H](NC(=O)CNC(=O)[C@H](CCC(N)=O)NC(=O)C(C)(C)NC(=O)[C@@H](N)Cc1ccc(O)cc1)[C@@H](C)O)[C@@H](C)O)[C@@H](C)CC)[C@@H](C)CC)C(=O)N[C@@H](CCC(=O)O)C(=O)NCC(=O)NCC(=O)N1CCC[C@H]1C(=O)N[C@@H](CO)C(=O)N[C@@H](CO)C(=O)NCC(=O)N[C@@H](C)C(=O)N1CCC[C@H]1C(=O)N1CCC[C@H]1C(=O)N1CCC[C@H]1C(=O)N[C@@H](CO)C(=O)NCC(=O)N[C@H](C(=O)NCC(=O)N[C@H](CCC(=O)O)C(N)=O)[C@@H](C)O [Example 723]
[1]
  EC50: 1.82 nM
[2]
  EC50: 1.02 nM
[3]
  EC50: 179 nM
[4]
  EC50: 0.0118 nM
[5]
  EC50: 0.255 nM
[6]
  EC50: 26.5 nM

## H-Y[Aib]QGTFTSDFS[Orn][αMeL]LDKK([AEEA-γGlu-C20 diacid])AQ[Aib]AFIEYLLE[Aib]GPSSGAPPPSEG-NH2 [Example 61]
[1]; [8]
  EC50: 3.57 nM
[2]
  EC50: 55.2 nM
[3]
  EC50: 1310 nM
[4]; [8]
  EC50: 0.122 nM
[5]; [8]
  EC50: 2.05 nM
[6]
  EC50: 704 nM

## CC[C@H](C)[C@H](NC(=O)[C@H](Cc1ccccc1)NC(=O)[C@H](C)NC(=O)C(C)(C)NC(=O)[C@H](CCC(N)=O)NC(=O)[C@H](C)NC(=O)[C@H](CCCCNC(=O)COCCOCCNC(=O)CC[C@H](NC(=O)CCCCCCCCCCCCCCCCC(=O)O)C(=O)O)NC(=O)[C@H](CCCCN)NC(=O)[C@H](CC(=O)O)NC(=O)[C@H](CC(C)C)NC(=O)[C@](C)(CC(C)C)NC(=O)[C@@H](NC(=O)[C@H](CO)NC(=O)[C@H](Cc1ccc(O)cc1)NC(=O)[C@H](CC(=O)O)NC(=O)[C@H](CO)NC(=O)[C@@H](NC(=O)[C@](C)(Cc1ccccc1F)NC(=O)[C@@H](NC(=O)CNC(=O)[C@H](CCC(N)=O)NC(=O)C(C)(C)NC(=O)[C@@H](N)Cc1ccc(O)cc1)[C@@H](C)O)[C@@H](C)O)[C@@H](C)CC)C(=O)N[C@@H](CCC(=O)O)C(=O)N[C@@H](Cc1ccc(O)cc1)C(=O)N[C@@H](CC(C)C)C(=O)N[C@@H](CCC(=O)O)C(=O)N[C@@H](CCC(=O)O)C(=O)NCC(=O)NCC(=O)N1CCC[C@H]1C(=O)N[C@@H](CO)C(=O)N[C@@H](CO)C(=O)NCC(=O)N[C@@H](C)C(=O)N1CCC[C@H]1C(=O)N1CCC[C@H]1C(=O)N1CCC[C@H]1C(=O)N[C@@H](CO)C(N)=O [Example 421] (H-Y[Aib]QGT[αMePhe(2-F)]TSDYSI[αMeL]LDKK([AEEA-γGlu-C18 diacid])AQ[Aib]AFIEYLEEGGPSSGAPPPS-NH2)
[1]
  EC50: 3.25 nM
[2]
  EC50: 2.98 nM
[3]
  EC50: 468 nM
[4]
  EC50: 0.0132 nM
[5]
  EC50: 0.21 nM
[6]
  EC50: 31.9 nM

## H-Y[Aib]QGT[αMePhe(2-F)]TSD[4Pal][αMeS]I[αMeL]LD[Orn]K([γGlu-γGlu-C18 diacid])AQ[Aib][Orn]FI[dE][αMeY]LSEGGPSSGEPPPSGSE-NH2 [Example 560]
[1]
  EC50: 3.8 nM
[2]
  EC50: 7.94 nM
[3]
  EC50: 355 nM
[4]
  EC50: 0.113 nM
[5]
  EC50: 0.883 nM
[6]
  EC50: 52 nM

## CC[C@H](C)[C@H](NC(=O)[C@H](CC(C)C)NC(=O)[C@](C)(Cc1ccc(O)cc1)NC(=O)[C@@H](CCC(=O)O)NC(=O)[C@@H](NC(=O)[C@H](Cc1ccccc1)NC(=O)[C@H](CCCN)NC(=O)C(C)(C)NC(=O)[C@H](CCC(N)=O)NC(=O)[C@H](C)NC(=O)[C@H](CCCCNC(=O)CC[C@H](NC(=O)CC[C@H](NC(=O)CCCCCCCCCCCCCCCCC(=O)O)C(=O)O)C(=O)O)NC(=O)[C@H](CCCN)NC(=O)[C@H](CC(=O)O)NC(=O)[C@H](CC(C)C)NC(=O)[C@](C)(CC(C)C)NC(=O)[C@@H](NC(=O)[C@](C)(CO)NC(=O)[C@H](Cc1ccncc1)NC(=O)[C@H](CC(=O)O)NC(=O)[C@H](CO)NC(=O)[C@@H](NC(=O)[C@](C)(Cc1ccccc1F)NC(=O)[C@@H](NC(=O)CNC(=O)[C@H](CCC(N)=O)NC(=O)C(C)(C)NC(=O)[C@@H](N)Cc1ccc(O)cc1)[C@@H](C)O)[C@@H](C)O)[C@@H](C)CC)[C@@H](C)CC)C(=O)N[C@@H](CCC(=O)O)C(=O)NCC(=O)NCC(=O)N1CCC[C@H]1C(=O)N[C@@H](CO)C(=O)N[C@@H](CO)C(=O)NCC(=O)N[C@@H](CCC(=O)O)C(=O)N1CCC[C@H]1C(=O)N1CCC[C@H]1C(=O)N1CCC[C@H]1C(=O)N[C@@H](CO)C(N)=O [Example 375] (H-Y[Aib]QGT[αMePhe(2-F)]TSD[4Pal][αMeS]I[αMeL]LD[Orn]K([γGlu-γGlu-C18 diacid])AQ[Aib][Orn]FI[dE][αMeY]LIEGGPSSGEPPPS-NH2)
[1]; [8]
  EC50: 1.32 nM
[2]
  EC50: 1.78 nM
[3]
  EC50: 137 nM
[4]; [8]
  EC50: 0.0165 nM
[5]; [8]
  EC50: 0.299 nM
[6]
  EC50: 18 nM

## H-Y[Aib]QGTFTSD[4Pal]SK[αMeL]LDKK([γGlu-γGlu-C18 diacid])AQ[Aib]AFIEYLIE[Aib]GPSSGAPPPSGS-NH2 [Example 907]
[1]; [8]
  EC50: 5.79 nM
[2]
  EC50: 8.86 nM
[3]
  EC50: 1210 nM
[4]; [8]
  EC50: 0.103 nM
[5]; [8]
  EC50: 1.15 nM
[6]
  EC50: 123 nM

## H-Y[Aib]QGTFTSD[4Pal]SQ[αMeL]LDKK([Glu-γGlu-C18 diacid])AQ[αMe4Pal]AFIEYLIAGGPSSGAPPPSGSEE-NH2 [Example 1030]
[1]; [8]
  EC50: 9.42 nM
[2]
  EC50: 21 nM
[3]
  EC50: 1830 nM
[4]; [8]
  EC50: 0.122 nM
[5]; [8]
  EC50: 1.72 nM
[6]
  EC50: 385 nM

## H-Y[Aib]QGT[αMePhe(2-F)]TSD[4Pal][αMeS]I[αMeL]LD[Orn]K([AEEA-γGlu-C18 diacid])AQ[Aib][Orn]FI[dE][αMeY]LIEGGPSSGEPPPEGE-NH2 [Example 698]
[1]
  EC50: 1.53 nM
[2]
  EC50: 0.824 nM
[3]
  EC50: 124 nM
[4]
  EC50: 0.0112 nM
[5]
  EC50: 0.252 nM
[6]
  EC50: 20.6 nM

## Y[Aib]QGT[αMePhe(2-F)]TSD[4Pal][αMeS]I[αMeL]LD[Orn]K([AEEA-γGlu-C18 diacid])AQ[αMe4Pal]EFI[dE][αMeY]LIEGGPPS[Aib]EPPP[Orn]GE-NH2 [Example 1193]
[1]; [7]
  EC50: 1.56 nM
[2]
  EC50: 0.803 nM
[3]
  EC50: 202 nM
[4]; [7]
  EC50: 0.00897 nM
[5]; [7]
  EC50: 0.544 nM
[6]
  EC50: 66.2 nM
